Measured values as given in patent publication US8039616B2, “Benzodiazepine derivatives for treating hepatitis C infection” (AstraZeneca AB, priority 2005, dated 2011).

target: T1, HCV Polymerase (Hepatitis C virus genotype 1a, UniProt P27958); test: Polymerase 96 well microtitre plate based IC50 assay (33P-UTP incorporation, streptavidin FlashPlates); assay type: biochemical; settings: polyA/biotinylated-U13 template-primer, 100 minutes at 25° C.
T1 construct: the HCV Polymerase was expressed and purified by Prof Alistair Hawkins; made in house
Description: Polymerase 96 Well Microtitre Plate Based IC50 Assay
Inhibitors of HCV Polymerase can be detected radioactively by monitoring the incorporation of ^33P-UTP within an RNA template/Bi-primer system using streptavidin coated FlashPlates. The template and primer for the reaction can be bought externally from Amersham (Poly A) and MWG-Dharmacon (Biotinylated-U13). The cold UTP can be purchased from Roche and the HCV Polymerase was expressed and purified by Prof Alistair Hawkins at Newcastle University, UK.
50 μl substrate, 40 μl enzyme, 10 μl compound=100 μl assay
Compounds are diluted so that DMSO remains 10% at all times. E.g. 5 μl compound (10 mM)+5 μl DMSO+90 μl Buffer (see below for buffer)
Some 20 mM Tris-HCl, pH 7.5, 5 mM MgCl2, 25 mM KCL, 3 mM DTT and 0.05% BSA is made up.
The PolyA and Biotinylated U13 are annealed at 70° C. for 5 minutes to 40 μM U13 (212 μg/ml polyA.) and cooled gently on ice prior to use (110 μl primer (80 μM)+5.5 μl poly A+104.5 μl dH20.). Some 200 μl annealed primer/template is mixed with 12.8 μl UTP (1 mM stock), 25.6 μl 33p-UTP and 31761.6 μl Buffer to make the substrate mix.
From IC50 dilution plates 10 μl are transferred from column 3 into columns 3 and 3 on two separate assay plates. This is repeated for all compound dilutions to 2 separate assay plates. Then 10 μl 10% DMSO solution is added to positive and negative controls (see plate map below). In addition, 40 μl 20 mM Tris-HCl buffer is added to negative controls.
Then 50 μl substrate mix is added to all wells.
Then 40 μl enzyme mix each is added to all other wells and the reaction is left for 100 minutes shaking at 25° C.
The reaction is terminated with the addition of 100 μl, 100 mM EDTA and the volume is transferred to a streptavidin coated flash plate, covered and left for an hour.
All plates are washed three times in SkanWasher plate-washer (Skatron Instruments) under programme ‘AH’. The wash buffer contains, 0.01M phosphate buffer, 0.0027M potassium chloride and 0.137M sodium chloride, pH 7.4 at 25° C., 0.05% Tween
All plate are recovered and the cpmB read in the TopCount (supplied by DPM solutions), protocol 6.

T1 sequence (P27958 2421-3011): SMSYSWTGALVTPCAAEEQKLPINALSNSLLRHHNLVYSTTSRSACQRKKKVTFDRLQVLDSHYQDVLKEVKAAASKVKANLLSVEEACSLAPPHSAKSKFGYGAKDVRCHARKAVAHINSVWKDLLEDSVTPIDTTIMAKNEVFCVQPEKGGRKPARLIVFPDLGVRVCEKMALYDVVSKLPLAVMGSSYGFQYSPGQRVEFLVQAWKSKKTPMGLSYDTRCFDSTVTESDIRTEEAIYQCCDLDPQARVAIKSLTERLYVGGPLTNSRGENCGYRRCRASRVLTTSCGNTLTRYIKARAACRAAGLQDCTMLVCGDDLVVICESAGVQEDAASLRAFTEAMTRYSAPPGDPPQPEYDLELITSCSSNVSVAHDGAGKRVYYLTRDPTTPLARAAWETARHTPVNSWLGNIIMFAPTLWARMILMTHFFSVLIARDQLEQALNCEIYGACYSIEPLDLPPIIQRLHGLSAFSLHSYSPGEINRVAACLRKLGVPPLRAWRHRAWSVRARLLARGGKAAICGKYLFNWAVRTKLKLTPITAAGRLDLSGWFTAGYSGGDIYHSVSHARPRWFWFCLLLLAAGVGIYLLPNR

`COc1ccc(F)cc1C(=O)NC1N=C(c2ccc(Cl)cc2)c2ccccc2NC1=O` (stereo not drawn) [Example 6, N-[5-(4-Chloro-phenyl)-2-oxo-2,3-dihydro-1H-benzo[e][1,4]diazepin-3-yl]-5-fluoro-2-methoxy-benzamide] and `COc1ccc(F)cc1C(=O)N[C@H]1N=C(c2ccc(Cl)cc2)c2ccccc2NC1=O` [Example 7, (S)—N-[5-(4-Chloro-phenyl)-2-oxo-2,3-dihydro-1H-benzo[e][1,4]diazepin-3-yl]-5-fluoro-2-methoxy-benzamide] cannot be ordered by IC50: over 1 µM for the first, over 1 µM for the second.

`COc1ccc(Cl)cc1C(=O)N[C@H]1N=C(c2ccc(Cl)cc2)c2ccccc2NC1=O` [Example 10, (S)-5-Chloro-N-[5-(4-chloro-phenyl)-2-oxo-2,3-dihydro-1H-benzo[e][1,4]diazepin-3-yl]-2-methoxy-benzamide] and `COc1ccc(Cl)cc1C(=O)NC1N=C(c2ccc(Cl)cc2)c2ccccc2NC1=O` (stereo not drawn) [Example 9, 5-Chloro-N-[5-(4-chloro-phenyl)-2-oxo-2,3-dihydro-1H-benzo[e][1,4]diazepin-3-yl]-2-methoxy-benzamide] cannot be ordered by IC50: under 1 µM for the first, under 1 µM for the second.

Compared with `COc1ccc(OC)c(C(=O)NC2N=C(c3ccc(Cl)cc3)c3ccccc3NC2=O)c1` (stereo not drawn) [Example 3, N-[5-(4-Chloro-phenyl)-2-oxo-2,3-dihydro-1H-benzo[e][1,4]diazepin-3-yl]-2,5-dimethoxy-benzamide], `COc1ccc(OC)c(C(=O)N[C@@H]2N=C(c3ccc(Cl)cc3)c3ccccc3NC2=O)c1` [Example 5, (R)—N-[5-(4-Chloro-phenyl)-2-oxo-2,3-dihydro-1H-benzo[e][1,4]diazepin-3-yl]-2,5-dimethoxy-benzamide] is higher in IC50: under 1 µM for the first, over 1 µM for the second.

`CCOc1ccccc1C(=O)N[C@H]1N=C(c2ccc(Cl)cc2)c2ccccc2NC1=O` [Example 2, (S)—N-[5-(4-Chloro-phenyl)-2-oxo-2,3-dihydro-1H-benzo[e][1,4]diazepin-3-yl]-2-ethoxy-benzamide] and `CCOc1ccccc1C(=O)NC1N=C(c2ccc(Cl)cc2)c2ccccc2NC1=O` (stereo not drawn) [Example 1, N-[5-(4-Chloro-phenyl)-2-oxo-2,3-dihydro-1H-benzo[e][1,4]diazepin-3-yl]-2-ethoxy-benzamide] cannot be ordered by IC50: over 1 µM for the first, over 1 µM for the second.

`COc1ccc(F)cc1C(=O)N[C@@H]1N=C(c2ccc(Cl)cc2)c2ccccc2NC1=O` [Example 8, (R)—N-[5-(4-Chloro-phenyl)-2-oxo-2,3-dihydro-1H-benzo[e][1,4]diazepin-3-yl]-5-fluoro-2-methoxy-benzamide] and `COc1ccc(Cl)cc1C(=O)N[C@@H]1N=C(c2ccc(Cl)cc2)c2ccccc2NC1=O` [Example 11, (R)-5-Chloro-N-[5-(4-chloro-phenyl)-2-oxo-2,3-dihydro-1H-benzo[e][1,4]diazepin-3-yl]-2-methoxy-benzamide] cannot be ordered by IC50: over 1 µM for the first, over 1 µM for the second.

Going from `COc1ccc(OC)c(C(=O)N[C@H]2N=C(c3ccc(Cl)cc3)c3ccccc3NC2=O)c1` [Example 4, (S)—N-[5-(4-Chloro-phenyl)-2-oxo-2,3-dihydro-1H-benzo[e][1,4]diazepin-3-yl]-2,5-dimethoxy-benzamide] to `O=C(NC1N=C(c2ccc(Cl)cc2)c2ccccc2NC1=O)c1sccc1Br` (stereo not drawn) [Example 12, 3-Bromo-thiophene-2-carboxylic acid [5-(4-chloro-phenyl)-2-oxo-2,3-dihydro-1H-benzo[e][1,4]diazepin-3-yl]-amide], the IC50 rises from under 1 µM to over 1 µM.
